# Earlier results in patent US20090202995A1, “MOLECULAR CARDIOTOXICOLOGY MODELING” (priority 2005, published 2009).
# Where two headings read alike, the source gives them in different places.
# How the values were obtained:
# heart tissue [1] = system: heart tissue
# heart tissue [2] = system: heart tissue; remark: listed apart in the source
# heart tissue [3] = settings: known designation used to train the model, at the dose, time and route of Table 3
# heart tissue [4] = settings: known designation used to train the model, at the dose, time and route of Table 3; remark: listed apart in the source
# heart tissue [5] = system: heart tissue; remark: listed apart in the source
# heart tissue [6] = settings: known designation used to train the model, at the dose, time and route of Table 3; remark: listed apart in the source
# [7] = known designation used to train the model, at the dose, time and route of Table 3
# [8] = known tox (1) / non-tox (−1) designation used to train the model, at the dose, time and route of Table 3
Structure (SMILES),Myocardial Necrosis (heart tissue [1]; [7]),Arrhythmia (heart tissue [2]; [7]),Heart Failure (heart tissue [3]),Vasculature Agent (heart tissue [4]),General (heart tissue [5]; [8]),Andrenergic Agonist (heart tissue [6]),"Myocardial Necrosis (heart tissue [1]; rat, in vivo)","Arrhythmia (heart tissue [2]; rat, in vivo)","General (heart tissue [5]; rat, in vivo)"
COc1cccc2c1C(=O)c1c(O)c3c(c(O)c1C2=O)C[C@@](O)(C(=O)CO)C[C@@H]3O[C@H]1C[C@H](N)[C@H](O)[C@H](C)O1 [Adriamycin],1,−1,1,−1,1,−1,–,–,–
N=C(N)c1ccc(OCCCCCOc2ccc(C(=N)N)cc2)cc1 [Pentamidine],−1,1,−1,–,1,–,–,–,–
O=C1CN(/N=C/c2ccc(-c3ccc([N+](=O)[O-])cc3)o2)C(O)=N1 [Dantrolene],−1,1,1,–,1,−1,–,–,–
Nc1nc2c(ncn2COCCO)c(=O)[nH]1 [Acyclovir],−1,−1,−1,−1,−1,−1,–,–,–
N.N.[Cl][Pt][Cl] [Cisplatin],1,1,−1,−1,1,−1,–,–,–
CN(CCOc1ccc(CC2SC(=O)NC2=O)cc1)c1ccccn1 (stereo not shown) [Rosiglitazone],–,–,1,–,1,–,–,–,–
CC(N)C(O)c1ccccc1 (stereo not shown) [Phenylpropanolamine],–,1,−1,–,1,–,–,–,–
N.N.O=C([O-])C1(C(=O)[O-])CCC1.[Pt+2] [Carboplatin],−1,−1,−1,−1,−1,−1,–,–,–
CC(C)(C)NCC(O)c1cc(Cl)c(N)c(Cl)c1 (stereo not shown) [Clenbuterol],1,1,–,1,1,1,–,–,–
NNc1nncc2ccccc12 [Hydralazine],1,1,−1,1,1,−1,–,–,–
Nc1cc(N2CCCCC2)nc(N)[n+]1[O-] [Minoxidil],1,1,1,1,1,−1,–,–,–
Cn1nnc2c(C(N)=O)ncn2c1=O [Temozolomide],−1,−1,−1,–,−1,–,–,–,–
CNC[C@H](O)c1ccc(O)c(O)c1 [Epinephrine],1,1,−1,−1,1,1,–,–,–
O=P1(N(CCCl)CCCl)NCCCO1 (stereo not shown) [Cyclophosphamide],−1,−1,1,−1,1,−1,–,–,–
NC[C@H](O)c1ccc(O)c(O)c1 [Norephinephrine],1,1,−1,–,1,1,–,–,–
Fc1ccc([C@@H]2CCNC[C@H]2COc2ccc3c(c2)OCO3)cc1 [Paroxetine],−1,1,–,–,1,–,–,–,–
CC(C)NCC(O)c1ccc(O)c(O)c1 (stereo not shown) [Isoproterenol],1,1,–,–,1,1,–,–,–
NC(N)=Nc1nc(CSCCC(N)=NS(N)(=O)=O)cs1 [Famotidine],−1,1,−1,−1,1,−1,–,–,–
NCCc1ccc(O)c(O)c1 [Dopamine],−1,1,–,−1,1,1,–,–,–
C[C@H]1C(=O)O[C@@H]2CCN3CC=C(COC(=O)[C@](C)(O)[C@]1(C)O)[C@H]23 [Monocrotaline],–,–,–,–,–,–,−1,−1,1
COc1cccc2c1C(=O)c1c(O)c3c(c(O)c1C2=O)C[C@@](O)(C(=O)CO)C[C@@H]3O[C@H]1C[C@H](N)[C@@H](O)[C@H](C)O1 [Epirubicin],−1,1,1,−1,1,−1,–,–,–
ClC(Cl)(Cl)Cl [CCl4],−1,−1,−1,−1,−1,−1,–,–,–
